Laboratory results: paper PMC5080911 (Journal of medicinal chemistry, 2016)
Like-named read-outs stand apart in the source and are kept apart here.

Tests used:
SKOV-3 cells = experiment: Stability of prodrugs with the SKOV-3 cells in the dark; assay type: in vitro ADME; conditions: 500 nM, 3 day incubation with SKOV-3 cells
[1] = assay type: physicochemical; conditions: 10 µM in DMEM with 5% FCS, 690 nm
tubulin = experiment: Tubulin polymerization assay; conditions: for time to reach maximum/plateau of tubulin polymerization / effect on tubulin polymerization: 3 µM; for time to reach maximum/plateau of tubulin polymerization: 37 °C, monitored 1 h; for tubulin polymerization effect of irradiated sample: sample irradiated with far-red light; for effect on tubulin polymerization: not irradiated
[2] = Stability of prodrugs in the complete medium under dark conditions; assay type: physicochemical; conditions: 37 °C, 10 µM, 96 h
[3] = Solubility in aqueous medium; assay type: physicochemical; conditions: qualitative
[4] = 5.6 mW/cm^2, illumination 30 min

## CC(=O)O[C@H]1C(=O)[C@@]2(C)[C@H]([C@H](OC(=O)c3ccccc3)[C@]3(O)C[C@H](OC(=O)[C@H](OC(=O)/C=C/N4CCN(CCO[Si]5(OCCN6CCN(/C=C/C(=O)O[C@@H](C(=O)O[C@H]7C[C@@]8(O)[C@@H](OC(=O)c9ccccc9)[C@@H]9[C@]%10(OC(C)=O)CO[C@@H]%10C[C@H](O)[C@@]9(C)C(=O)[C@H](OC(C)=O)C(=C7C)C8(C)C)[C@@H](NC(=O)c7ccccc7)c7ccccc7)CC6)n6c7c8ccccc8c6/N=C6N=C(/N=c8/c9ccccc9/c(n85)=N/C5=NC(=N\7)/c7ccccc75)c5ccccc5\6)CC4)[C@@H](NC(=O)c4ccccc4)c4ccccc4)C(C)=C1C3(C)C)[C@]1(OC(C)=O)CO[C@@H]1C[C@@H]2O [Compound 4]
SKOV-3 cells
  reduction of recovered prodrug (cells + culture medium): 4.9%
[1]; 5.6 mW/cm^2, illumination 10 min
  PTX released from the prodrug: about 83%
[1]; [4]
  PTX released from the prodrug: ~93%
tubulin
  time to reach maximum/plateau of tubulin polymerization: ~ 40 min
  tubulin polymerization effect of irradiated sample: significantly increased
[2]
  decrease (loss) of prodrug in complete medium: less than 7%

## CC(=O)O[C@H]1C(=O)[C@@]2(C)[C@H]([C@H](OC(=O)c3ccccc3)[C@]3(O)C[C@H](OC(=O)[C@H](O)[C@@H](NC(=O)c4ccccc4)c4ccccc4)C(C)=C1C3(C)C)[C@]1(OC(C)=O)CO[C@@H]1C[C@@H]2O [PTX, Paclitaxel, reference compound]
tubulin
  effect on tubulin polymerization: the tubulin polymerization was rapid

## COc1ccc(/C=C\c2cc(OC)c(OC)c(OC)c2)cc1O [CA4, Combretastatin A-4, reference compound]
tubulin
  effect on tubulin polymerization: almost completely prevented the polymerization

## CC(=O)O[C@H]1C(=O)[C@@]2(C)[C@H](O)C[C@@H]3OC[C@]3(OC(C)=O)[C@@H]2[C@@H](OC(=O)c2ccccc2)[C@]2(O)C[C@@H](OC(=O)[C@@H](OC(=O)CCC(=O)N3CCN(CCO[Si]4(OCCN5CCN(C(=O)CCC(=O)O[C@@H](C(=O)O[C@@H]6C[C@@]7(O)[C@H](OC(=O)c8ccccc8)[C@H]8[C@@]9(OC(C)=O)CO[C@H]9C[C@@H](O)[C@]8(C)C(=O)[C@H](OC(C)=O)C(=C6C)C7(C)C)[C@H](NC(=O)c6ccccc6)c6ccccc6)CC5)n5c6c7ccccc7c5/N=C5N=C(/N=c7/c8ccccc8/c(n74)=N/C4=NC(=N\6)/c6ccccc64)c4ccccc4\5)CC3)[C@H](NC(=O)c3ccccc3)c3ccccc3)C(C)=C1C2(C)C (stereo partly shown) [Compound 5]
SKOV-3 cells
  reduction of recovered prodrug (cells + culture medium): 3.1%
[1]; [4]
  PTX released from the prodrug: could not detect PTX
tubulin
  time to reach maximum/plateau of tubulin polymerization: ~ 40 min
  tubulin polymerization effect of irradiated sample: not much change
[3]
  solubility in aqueous medium: lower solubility in aqueous medium than 4
